Data published in ChEMBL document CHEMBL1159352, “Reaction of irofulven with zinc and acid” (J Nat Prod, 2003).
pIC50: −log10 of the molar value.

system: HL-60; test: Cytotoxicity against human HL60 cells after 48 hrs by trypan blue exclusion assay; format: functional, cell-based; settings: HL-60, 48 h

Structure (SMILES)	pIC50
C=C1C(C)=Cc2c(O)c(C)c(CCOC(C)=O)c(C)c21	3.96
CC1=C(CO)c2c(C)c(CCO)c(C)c(O)c2C1	3.92
C=C1C(C)=Cc2c(O)c(C)c(CCO)c(C)c21	3.89
CC1=C(CO)c2c(C)c(CCO)c(C)c(O)c2C1O (stereo not given)	3.94
CC1=C2C(=C[C@@](C)(CO)[C@@H]2O)C(=O)[C@](C)(O)C12CC2 [ILLUDIN]	8.52
